Data taken from patent US7838565B2, “Use of cyclohexenone derivatives in the manufacture of a medicament for treating diabetic complications” (Meiji Dairies Corporation, priority 2001, dated 2010).
Several values for one entry are separate records, joined by “and”; a condition that tells them apart may be missing. Equal values may be shown once.

Legend:
Assay type in all cases: in vivo
[1] = tested on: model rat of diabetes (streptozotocin); test: Test 1: neural stimulus conduction rate (sciatic nerve) in STZ diabetes model rat; details: STZ (65 mg/kg i.p.) diabetes rat, 8 mg/kg daily i.p. for 8 weeks, mean ± S.E.
Experimental: (§1) To a rat, 65 mg/kg of streptozotocin (STZ) was administered intraperitoneally to prepare a model rat of diabetes. After intraperitoneal administration of Compound 4 obtained in Preparation Example 4 at a daily dose of 8 mg/kg for 8 weeks from two days after administration of STZ, the conduction rate of stimulus to sciatic nerve was measured by inserting a needle electrode for potential measurement into the vicinity of the right sciatic nerve, right Achilles tendon, and right plantar. Measurement was conducted three times and the mean of them was designated as the nerve stimulus conduction rate of the rat. Each group consisted of 10 to 12 rats.

[2] = tested on: model rat of diabetes (streptozotocin); test: Test 2: maximum quantity excreted by single urination, metabolic cage, STZ diabetes model rat; details: 8 mg/kg daily i.p. for 8 weeks, recorded for 24 hours in metabolic cage, mean ± S.E.
Experimental: as §1
In a similar manner to Test 1, Compound 4 obtained in Preparation Example 4 was administered intraperitoneally to a rat at a daily dose of 8 mg/kg day for 8 weeks from two days after administration of STZ. Its urination pattern such as urination frequency and urination amount was then recorded for 24 hours at 2.5-min intervals by using a metabolic cage.

[3] = tested on: model rat of diabetes (streptozotocin); test: Test 3: bladder capacity and urination efficiency by intravesical pressure measurement under anesthesia, STZ diabetes model rat; details: 8 mg/kg daily i.p. for 8 weeks, mean ± S.E.
Experimental: as §1
In a similar manner to Test 1, Compound 4 obtained in Preparation Example 4 was administered intraperitoneally to a rat at a daily dose of 8 mg/kg for 8 weeks from two days after administration of STZ. The intravesical pressure of the rat was then measured under anesthesia, whereby bladder capacity and urination efficiency were determined.
The urination efficiency was determined from an excreted quantity/bladder capacity ratio.
Urination efficiency (%)=100×excreted quantity/bladder capacity

CC1=C(CCCCCCCCCCCCCCCO)C(C)(C)CCC1=O [Compound 4, 3-(15-Hydroxypentadecyl)-2,4,4-trimethyl-2-cyclohexen1-one]
Conduction rate of stimulus to nerve [1]: 45.5 m/sec and 45.5 ± 1.2 m/sec
Maximum amount excreted by single urination [2]: 3.71 ± 0.26 mL
Bladder capacity (urination-inducing) [3]: 0.54 ± 0.07 mL
Urination efficiency (100×excreted quantity/bladder capacity) [3]: 75.0±6.1%
